Assay results reported in US9681664B2, “Macrocyclic picolinamides as fungicides” (Dow Agrosciences LLC, priority 2012, dated 2017).
Like-named read-outs stand apart in the source and are kept apart here.

Experiments:
[1] = system: Mycosphaerella graminicola; Anamorph: Septoria tritici; experiment: Leaf blotch of wheat (SEPTTR) disease control on wheat seedlings; type: in vivo; details: Zymoseptoria tritici; for pest or weed control at 121.5 g/ha: low volume application, 121.5 g/H
Outline: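 Wheat seedlings (Yuma, first leaf emerged) sprayed to run-off with compound in acetone/water with 110 ppm Triton X-100, or track-sprayed as EC with 0.1% Trycol 5941. Septoria tritici spores inoculated before or after treatment. Dew chambers, then 20 °C greenhouse. Percent disease control derived from severity (0–100%) relative to untreated plants.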

[2] = system: Puccinia triticina; Synonym: Puccinia recondite f. sp. tritici; experiment: Wheat brown rust (PUCCRT) disease control on wheat seedlings; type: in vivo; details: Puccinia triticina; for pest or weed control at 121.5 g/ha: low volume application, 121.5 g/H
Outline: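 Acetone solutions diluted in nine volumes of water with 110 ppm Triton X-100 sprayed to run-off on first-leaf Yuma wheat seedlings (track spray: EC with 0.1% Trycol 5941). Puccinia triticina spores inoculated before or after treatment; overnight dark dew at 22° C., 100% RH, then greenhouse at 24° C. for disease development.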

Phakopsora pachyrhizi = experiment: Asian soybean rust (PHAKPA) disease control; type: in vivo; details: topical, high volume
Experimental: Technical grades of materials were dissolved in acetone, which were then mixed with nine volumes of water containing 0.011% Tween 20. The fungicide solutions were applied onto soybean seedlings using an automated booth sprayer to run-off. All sprayed plants were allowed to air dry prior to further handling.
Soybean plants (variety Williams 82) were grown in soil-less Metro mix, with one plant per pot. Two weeks old seedlings were used for testing. Plants were inoculated either 3 days prior to or 1 day after fungicide treatments. Plants were incubated for 24 h in a dark dew room at 22° C. and 100% RH then transferred to a growth room at 23° C. for disease to develop. Disease severity was assessed on the sprayed leaves.

[3] = system: Glomerella lagenarium; Anamorph: Colletotrichum lagenarium; experiment: Cucumber anthracnose (COLLLA) disease control; type: in vivo; details: Colletotrichum orbiculare, 24 h, 1 Day Protectant, high volume, read-out: Disease Control COLLLA 1 DP
Experimental: Technical grades of materials were dissolved in acetone, which were then mixed with nine volumes of water containing 110 ppm Triton X-100. The fungicide solutions were applied onto wheat seedlings using an automated booth sprayer to run-off. All sprayed plants were allowed to air dry prior to further handling. All fungicides were evaluated using the aforementioned method for their activity vs. all target diseases. Wheat leaf blotch and brown rust activity were also evaluated using track spray applications, in which case the fungicides were formulated as EC formulations, containing 0.1% Trycol 5941 in the spray solutions. Cucumber seedlings (variety Bush Pickle) were propagated in soil-less Metro mix, with each pot having one plant, and used in the test when 12 to 14 days old. Test plants were inoculated with an aqueous spore suspension of Colletotrichum lagenarium 24 hr after fungicide treatments. After inoculation the plants were kept in a dew room at 22° C. with 100% relative humidity for 48 hr to permit spores to germinate and infect the leaf. The plants were then transferred to a growth room set at 22° C. for disease to develop. Fungicide formulation, application and disease assessment on the sprayed leaves followed the procedures as described in the Example A.

[4] = 24 h, High volume application, 1 Day Protectant, read-out: SEPTTR 1DP disease control
[5] = 72 h, High volume application, 3 Day Curative, read-out: SEPTTR 3DC disease control
[6] = 24 h, High volume application, 1 Day Protectant, read-out: PUCCRT 1DP disease control
[7] = 72 h, High volume application, 3 Day Curative, read-out: PUCCRT 3DC disease control
[8] = 24 h, 1 Day Protectant, read-out: Disease Control PHAKPA 1DP
[9] = 72 h, 3 Day Curative, read-out: Disease Control PHAKPA 3DC
[10] = 24 h, Wheat Leaf Blotch, 1 Day Protectant, high volume application, read-out: Disease Control SEPTTR 1 DP 100 ppm
[11] = 24 h, Wheat Leaf Blotch, 1 Day Protectant, read-out: Disease Control SEPTTR 1 DP 121.5 g/H
[12] = 72 h, Wheat Leaf Blotch, 3 Day Curative, high volume application, read-out: Disease Control SEPTTR 3 DC 100 ppm
[13] = 72 h, Wheat Leaf Blotch, 3 Day Curative, read-out: Disease Control SEPTTR 3 DC 121.5 g/H
[14] = 24 h, Wheat Brown Rust, 1 Day Protectant, high volume application, read-out: Disease Control PUCCRT 1 DP 100 ppm
[15] = 24 h, Wheat Brown Rust, 1 Day Protectant, read-out: Disease Control PUCCRT 1 DP 121.5 g/H
[16] = 72 h, Wheat Brown Rust, 3 Day Curative, high volume application, read-out: Disease Control PUCCRT 3 DC 100 ppm
[17] = 72 h, Wheat Brown Rust, 3 Day Curative, read-out: Disease Control PUCCRT 3 DC 121.5 g/H

SMILES	pest or weed control at 100 ppm [1, 4]	pest or weed control at 100 ppm [1, 5]	pest or weed control at 100 ppm [2, 6]	pest or weed control at 100 ppm [2, 7]	pest or weed control at 25 ppm (Phakopsora pachyrhizi; [8])	also measured
C[C@@H]1OC(=O)[C@@H](N)CCC[C@H](OC2CCCC2)[C@H]1OC1CCCC1.Cl						melting point: 246 to 248 °C
CCCO[C@H]1[C@H](C)OC(=O)[C@@H](N)CCC[C@@H]1OCC(C)C.Cl						melting point: 226 to 229 °C
COc1ccnc(C(=O)N[C@H]2CCC[C@H](OCC(C)C)[C@@H](Oc3ccc(F)cc3)[C@H](C)OC2=O)c1O [F55]	80 to 100%	80 to 100%	80 to 100%	80 to 100%		melting point: 65 to 67 °C
CC(C)CO[C@H]1CCC[C@H](N)C(=O)O[C@@H](C)[C@@H]1OC/C=C/C(F)(F)F.Cl						melting point: 236 to 240 °C
COc1ccnc(C(=O)N[C@H]2CCC[C@H](OC3CCCC3)[C@@H](Oc3ccccc3)[C@H](C)OC2=O)c1OC(C)=O [F81]	80 to 100%	80 to 100%	80 to 100%	80 to 100%	80 to 100%	
COc1ccnc(C(=O)N[C@H]2CCC[C@H](OC3CCCC3)[C@@H](OC3CCCC3)[C@H](C)OC2=O)c1OC(C)=O [F77]	80 to 100%	80 to 100%	80 to 100%	80 to 100%	80 to 100%	
COc1ccnc(C(=O)N[C@H]2CCC[C@H](OCC(C)C)[C@@H](OCCCC(F)(F)F)[C@H](C)OC2=O)c1OCOC(C)=O [F44]	80 to 100%	80 to 100%	80 to 100%	80 to 100%	80 to 100%	
COc1ccnc(C(=O)N[C@H]2CCC[C@H](OC3CCCC3)[C@@H](OC3CCCC3)[C@H](C)OC2=O)c1OCOC(=O)C(C)C [F76]	80 to 100%	80 to 100%	80 to 100%	80 to 100%	80 to 100%	
CCCO[C@H]1[C@H](C)OC(=O)[C@@H](NC(=O)c2nccc(OC)c2OC(C)=O)CCC[C@@H]1OCC(C)C [F47]	80 to 100%	80 to 100%	80 to 100%	80 to 100%	< 0%	
COc1ccnc(C(=O)N[C@H]2CCC[C@H](OCC(C)C)[C@@H](OC/C=C/C(F)(F)F)[C@H](C)OC2=O)c1OCOC(C)=O [F59]	80 to 100%	80 to 100%	80 to 100%	80 to 100%	80 to 100%	
COc1ccnc(C(=O)N[C@H]2CCC[C@H](OC3CCCC3)[C@@H](OC3CCCC3)[C@H](C)OC2=O)c1OCOC(C)=O [F217]	80 to 100%	80 to 100%	80 to 100%	80 to 100%	80 to 100%	pest or weed control at 100 ppm [3]: 80 to 100%
COc1ccnc(C(=O)N[C@H]2CCC[C@H](OCCCc3ccccc3)[C@@H](Oc3ccccc3)[C@H](C)OC2=O)c1OCOC(C)=O [F133]	80 to 100%	80 to 100%	80 to 100%	80 to 100%	80 to 100%	pest or weed control at 25 ppm (Phakopsora pachyrhizi; [9]): 0 to 80%
CCCO[C@H]1[C@H](C)OC(=O)[C@@H](NC(=O)c2nccc(OC)c2OCOC(C)=O)CCC[C@@H]1Oc1ccccc1 [F95]	80 to 100%	80 to 100%	80 to 100%	80 to 100%	80 to 100%	pest or weed control at 25 ppm (Phakopsora pachyrhizi; [9]): 80 to 100%
CCCO[C@H]1[C@H](C)OC(=O)[C@@H](NC(=O)c2nccc(OC)c2OCOC(C)=O)CCC[C@@H]1OCC(C)C [F45]	80 to 100%	80 to 100%	80 to 100%	80 to 100%	80 to 100%	pest or weed control at 25 ppm (Phakopsora pachyrhizi; [9]): 80 to 100%
CC(C)CO[C@H]1CCC[C@H](N)C(=O)O[C@@H](C)[C@@H]1OC(=O)C1CC1.Cl						melting point: 231 to 235 °C
CC(C)CO[C@H]1[C@H](C)OC(=O)[C@@H](N)CCC[C@@H]1OCC(C)C.Cl						melting point: 188 to 230 °C
COc1ccc(O[C@H]2CCC[C@H](N)C(=O)O[C@@H](C)[C@@H]2OCC(C)C)cc1.Cl						melting point: 198 to 200 °C
COc1ccnc(C(=O)N[C@H]2CCC[C@H](OC3CCCC3)[C@@H](Oc3ccccc3)[C@H](C)OC2=O)c1OCOC(=O)C(C)C [F79]	80 to 100%	80 to 100%	80 to 100%	80 to 100%	80 to 100%	
COc1ccnc(C(=O)N[C@H]2CCC[C@H](OC3CCCC3)[C@@H](Oc3ccccc3)[C@H](C)OC2=O)c1OCOC(C)=O [F78]	80 to 100%	80 to 100%	80 to 100%	80 to 100%	80 to 100%	pest or weed control at 25 ppm (Phakopsora pachyrhizi; [9]): 80 to 100%; pest or weed control at 100 ppm [3]: 80 to 100%
COCCC(=O)Oc1c(OC)ccnc1C(=O)N[C@H]1CCC[C@H](Oc2ccccc2)[C@@H](OC(=O)C2CC2)[C@H](C)OC1=O [F243]					80 to 100%	pest or weed control at 100 ppm [1, 10]: 80 to 100%; pest or weed control at 121.5 g/ha [1, 11]: 0 to 80%; pest or weed control at 100 ppm [1, 12]: 80 to 100%; pest or weed control at 121.5 g/ha [1, 13]: 80 to 100%; pest or weed control at 100 ppm [2, 14]: 80 to 100%; pest or weed control at 121.5 g/ha [2, 15]: 80 to 100%; pest or weed control at 100 ppm [2, 16]: 80 to 100%; pest or weed control at 121.5 g/ha [2, 17]: 80 to 100%; pest or weed control at 25 ppm (Phakopsora pachyrhizi; [9]): 0 to 80%
COc1ccnc(C(=O)N[C@H]2CCC[C@H](OCC(C)C)[C@@H](OC(=O)C3CC3)[C@H](C)OC2=O)c1OCOC(C)=O [F46]	80 to 100%	80 to 100%	80 to 100%	80 to 100%	80 to 100%	
COc1ccnc(C(=O)N[C@H]2CCC[C@H](Oc3ccc(F)cc3)[C@@H](OC3CCCC3)[C@H](C)OC2=O)c1OCOC(C)=O [F162]	80 to 100%	80 to 100%	80 to 100%	0 to 80%		
C=C(C)CO[C@H]1CCC[C@H](NC(=O)c2nccc(OC)c2OC(C)=O)C(=O)O[C@@H](C)[C@@H]1OC [F256]						pest or weed control at 121.5 g/ha [1, 11]: < 0%; pest or weed control at 121.5 g/ha [1, 13]: 0 to 80%; pest or weed control at 121.5 g/ha [2, 15]: 0 to 80%; pest or weed control at 121.5 g/ha [2, 17]: 80 to 100%
COc1ccnc(C(=O)N[C@H]2CCC[C@H](OCCCC(F)(F)F)[C@@H](Oc3ccccc3)[C@H](C)OC2=O)c1OCOC(=O)C(C)C [F136]	80 to 100%	80 to 100%	80 to 100%	80 to 100%		
CCCO[C@H]1CCC[C@H](NC(=O)c2nccc(OC)c2O)C(=O)O[C@@H](C)[C@@H]1Oc1cccc(F)c1 [F271]						pest or weed control at 100 ppm [1, 10]: 80 to 100%; pest or weed control at 100 ppm [1, 12]: 80 to 100%; pest or weed control at 100 ppm [2, 14]: 80 to 100%; pest or weed control at 100 ppm [2, 16]: 80 to 100%
